Data as given in patent publication US20190161451A1, “HERBICIDAL PYRIMIDINE COMPOUNDS” (BASF SE, priority 2016, published 2019).

Experiments:
[1] = tested on: ECHCG; test: greenhouse experiment, pre-emergence treatment; type: in vivo, Echinocloa crus-galli; details: pre-emergence method, scale from 0 to 100
Excerpt: (§1) The culture containers used were plastic flowerpots containing loamy sand with approximately 3.0% of humus as the substrate. The seeds of the test plants were sown separately for each species.
(§2) For the pre-emergence treatment, the active ingredients, which had been suspended or emulsified in water, were applied directly after sowing by means of finely distributing nozzles.
(§3) The containers were irrigated gently to promote germination and growth and subsequently covered with transparent plastic hoods until the plants had rooted. This cover caused uniform germination of the test plants, unless this had been impaired by the active ingredients.
(§4) Depending on the species, the plants were kept at 10-25° C. or 20-35° C., respectively.
(§5) The test period extended over 2 to 4 weeks. During this time, the plants were tended, and their response to the individual treatments was evaluated.
(§6) Evaluation was carried out using a scale from 0 to 100. 100 means no emergence of the plants, or complete destruction of at least the aerial moieties, and 0 means no damage, or normal course of growth. A good herbicidal activity is given at values of at least 70 and a very good herbicidal activity is given at values of at least 85.
(§7) The plants used in the greenhouse experiments were of the following species: […]

[2] = tested on: ALOMY; test: greenhouse experiment, post-emergence treatment; type: in vivo, Alopecurus myosuroides; details: post-emergence method, scale from 0 to 100
Excerpt: as §1
(§8) For the post-emergence treatment, the test plants were first grown to a height of 3 to 15 cm, depending on the plant habit, and only then treated with the active ingredients which had been suspended or emulsified in water. For this purpose, the test plants were either sown directly and grown in the same containers, or they were first grown separately as seedlings and transplanted into the test containers a few days prior to treatment.
as §4, §5, §6, §7

[3] = tested on: ECHCG; test: greenhouse experiment, post-emergence treatment; type: in vivo, Echinocloa crus-galli; details: post-emergence method, scale from 0 to 100
Excerpt: as §1, §8, §4, §5, §6, §7

[4] = tested on: APESV; test: greenhouse experiment, pre-emergence treatment; type: in vivo, Apera spica-venti; details: pre-emergence method, scale from 0 to 100
Excerpt: as §1, §2, §3, §4, §5, §6, §7

In the case of `COC(=O)c1nc(C2CC2)ncc1-c1c(Cl)sc2ccccc12` [example 4], the “herbicidal activity against ECHCG” value ([1]; application rate 1000 g/ha) is reported as “good (A good herbicidal activity is given at values of at least 70)” and the “herbicidal activity against ALOMY” value ([2]; application rate 1000 g/ha) is reported as “very good (a very good herbicidal activity is given at values of at least 85)”.

In the case of `O=C(O)c1nc(C2CC2)ncc1-c1cccc2c1OCC2` [example 5], the “herbicidal activity against ECHCG” value ([1]; application rate 1000 g/ha) is reported as “good (A good herbicidal activity is given at values of at least 70)” and the “herbicidal activity against ECHCG” value ([3]; application rate 1000 g/ha) is reported as “good (A good herbicidal activity is given at values of at least 70)”.

In the case of `COC(=O)c1nc(C2CC2)ncc1-c1cc2c(cc1Cl)OCO2` [example 9], the “herbicidal activity against ECHCG” value ([3]; application rate 1000 g/ha) is reported as “very good (a very good herbicidal activity is given at values of at least 85)”.

With `O=C(O)c1nc(C2CC2)ncc1-c1cc2c(cc1Cl)OCO2` [example 10] the “herbicidal activity against APESV” value ([4]; application rate 1000 g/ha) was “very good (a very good herbicidal activity is given at values of at least 85)”, the “herbicidal activity against ECHCG” value ([1]; application rate 1000 g/ha) was “very good (a very good herbicidal activity is given at values of at least 85)” and the “herbicidal activity against ECHCG” value ([3]; application rate 1000 g/ha) was “good (A good herbicidal activity is given at values of at least 70)”. For the same molecule, the “herbicidal activity against ALOMY” value ([2]; application rate 1000 g/ha) was “very good (a very good herbicidal activity is given at values of at least 85)”.

`COC(=O)c1nc(C2CC2)ncc1-c1csc2ccccc12` [example 12, Methyl 5-(benzothiophen-3-yl)-2-cyclopropyl-pyrimidine-4-carboxylate] was tested, and the “herbicidal activity against ECHCG” value ([1]; application rate 2000 g/ha) was “very good (a very good herbicidal activity is given at values of at least 85)”.

`O=C(O)c1nc(C2CC2)ncc1-c1coc2ccccc12` [example 16] was tested, and the “herbicidal activity against APESV” value ([4]; application rate 2000 g/ha) was “very good (a very good herbicidal activity is given at values of at least 85)”, the “herbicidal activity against ECHCG” value ([1]; application rate 2000 g/ha) was “very good (a very good herbicidal activity is given at values of at least 85)” and the “herbicidal activity against ECHCG” value ([3]; application rate 2000 g/ha) was “good (A good herbicidal activity is given at values of at least 70)”.

`COC(=O)c1nc(C2CC2)ncc1-c1c(Cl)oc2ccccc12` [example 19] was tested, and the “herbicidal activity against ALOMY” value ([2]; application rate 2000 g/ha) was “good (A good herbicidal activity is given at values of at least 70)”.

In the case of `O=C(O)c1nc(C2CC2)ncc1-c1c(Cl)oc2ccccc12` [example 20], the “herbicidal activity against APESV” value ([4]; application rate 2000 g/ha) is reported as “very good (a very good herbicidal activity is given at values of at least 85)”.

For `COC(=O)c1nc(C2CC2)ncc1-c1cc2c(cc1Br)OCO2` [example 24], the “herbicidal activity against ECHCG” value ([3]; application rate 1000 g/ha) was “very good (a very good herbicidal activity is given at values of at least 85)” and the “herbicidal activity against ALOMY” value ([2]; application rate 1000 g/ha) was “very good (a very good herbicidal activity is given at values of at least 85)”.

With `COC(=O)c1nc(C2CC2)ncc1-c1cc2c(cc1I)OCO2` [example 28] the “herbicidal activity against ECHCG” value ([1]; application rate 1000 g/ha) was “very good (a very good herbicidal activity is given at values of at least 85)”, the “herbicidal activity against ECHCG” value ([3]; application rate 1000 g/ha) was “good (A good herbicidal activity is given at values of at least 70)” and the “herbicidal activity against ALOMY” value ([2]; application rate 1000 g/ha) was “good (A good herbicidal activity is given at values of at least 70)”.

In the case of `COC(=O)c1nc(C2CC2)ncc1-c1c(Cl)cc2c(c1F)OCO2` [example 32], the “herbicidal activity against ECHCG” value ([1]; application rate 1000 g/ha) is reported as “very good (a very good herbicidal activity is given at values of at least 85)”, the “herbicidal activity against ECHCG” value ([3]; application rate 1000 g/ha) is reported as “good (A good herbicidal activity is given at values of at least 70)” and the “herbicidal activity against ALOMY” value ([2]; application rate 1000 g/ha) is reported as “good (A good herbicidal activity is given at values of at least 70)”.

`O=C(O)c1nc(C2CC2)ncc1-c1c(Cl)cc2c(c1F)OCO2` [example 33] was tested, and the “herbicidal activity against APESV” value ([4]; application rate 1000 g/ha) was “very good (a very good herbicidal activity is given at values of at least 85)”, the “herbicidal activity against ECHCG” value ([1]; application rate 1000 g/ha) was “very good (a very good herbicidal activity is given at values of at least 85)” and the “herbicidal activity against ECHCG” value ([3]; application rate 1000 g/ha) was “very good (a very good herbicidal activity is given at values of at least 85)”. For the same molecule, the “herbicidal activity against ALOMY” value ([2]; application rate 1000 g/ha) was “good (A good herbicidal activity is given at values of at least 70)”.

For `COc1c2c(cc(Cl)c1-c1cnc(C3CC3)nc1C(=O)O)OCO2` [example 36], the “herbicidal activity against APESV” value ([4]; application rate 1000 g/ha) was “very good (a very good herbicidal activity is given at values of at least 85)”, the “herbicidal activity against ECHCG” value ([3]; application rate 1000 g/ha) was “very good (a very good herbicidal activity is given at values of at least 85)” and the “herbicidal activity against ALOMY” value ([2]; application rate 1000 g/ha) was “very good (a very good herbicidal activity is given at values of at least 85)”.
